Data published in the CheMixHub viscosity set.

Experiment: xn = mol fraction of the nth substance listed

ClC(Cl)Cl + CCCCCCCCO
viscosity [mPa·s], 101 kPa
Conditions	303.15 K	313.15 K
x1 = 0.0471	5.924	4.259
x1 = 0.0996	5.36	3.883
x1 = 0.149	4.852	3.545
x1 = 0.1997	4.346	3.212
x1 = 0.2493	3.898	2.902
x1 = 0.3001	3.475	2.593
x1 = 0.3529	3.039	2.315
x1 = 0.4037	2.666	2.07
x1 = 0.4548	2.332	1.823
x1 = 0.5001	2.062	1.648
x1 = 0.555	1.772	1.426
x1 = 0.5995	1.552	1.273
x1 = 0.6467	1.37	1.134
x1 = 0.7001	1.171	0.987
x1 = 0.7484	1.036	0.883
x1 = 0.7997	0.929	0.769
x1 = 0.8451	0.804	0.704
x1 = 0.9007	0.693	0.627
x1 = 0.9494	0.616	0.555

CC(=O)OCc1ccccc1 + CCCCCO
viscosity [mPa·s], 101.33 kPa
Conditions	x1 = 0.1074	x1 = 0.2083	x1 = 0.2988	x1 = 0.4051	x1 = 0.5012	x1 = 0.6057	x1 = 0.7115	x1 = 0.8097	x1 = 0.9004
293.15 K	3.865	3.649	3.465	3.261	3.087	2.909	2.738	2.589	2.459
303.15 K	2.789	2.661	2.551	2.427	2.321	2.21	2.103	2.009	1.926
313.15 K	2.194	2.1	2.018	1.927	1.848	1.766	1.686	1.616	1.553
323.15 K	1.296	1.288	1.281	1.274	1.266	1.259	1.251	1.244	1.237

CCCCCCCCCC(=O)OC + CCCCCO
viscosity [mPa·s], 100 kPa
Conditions	x1 = 0.1	x1 = 0.2	x1 = 0.3	x1 = 0.4	x1 = 0.5	x1 = 0.6	x1 = 0.7	x1 = 0.8001	x1 = 0.9001
298.15 K	2.764	2.385	2.169	2.028	1.946	1.892	1.866	1.859	1.875
303.15 K	2.451	2.119	1.938	1.825	1.754	1.706	1.689	1.686	1.712
308.15 K	2.158	1.892	1.741	1.646	1.588	1.549	1.535	1.536	1.555
313.15 K	1.918	1.697	1.571	1.49	1.444	1.413	1.402	1.407	1.426
318.15 K	1.713	1.529	1.423	1.358	1.32	1.293	1.288	1.292	1.312
323.15 K	1.535	1.387	1.294	1.239	1.211	1.189	1.186	1.194	1.212

CC(=O)OCc1ccccc1 + CCCCO
viscosity [mPa·s], 101.33 kPa
Conditions	x1 = 0.1023	x1 = 0.1976	x1 = 0.3075	x1 = 0.4014	x1 = 0.5022	x1 = 0.5973	x1 = 0.7048	x1 = 0.8005	x1 = 0.8914
293.15 K	2.803	2.748	2.685	2.633	2.578	2.527	2.471	2.422	2.376
303.15 K	2.224	2.18	2.129	2.087	2.043	2.002	1.957	1.918	1.881
313.15 K	1.66	1.641	1.619	1.6	1.581	1.562	1.542	1.524	1.507
323.15 K	1.104	1.116	1.131	1.144	1.158	1.172	1.187	1.201	1.214

CCCCCCCCCCCCCCCC + CCCCO
101 kPa
Conditions	viscosity [mPa·s]
298.15 K, x2 = 0.3	2.675
323.15 K, x2 = 0.8	1.435
